# Target: recombinant IL4I1 (Homo sapiens (Human), UniProt Q96RQ9)
# Assay: IL4I1 Enzymatic Assay (Amplex Red/HRP coupled fluorescence detection of H2O2)
# Assay type: biochemical
# Conditions: 240 min; recombinant IL4I1, four-hour pre-incubation with compound
# Protocol: Interleukin 4 inducible protein 1 (IL4I1) is an L-amino oxidase that catalyzes the oxidation of aromatic residues (Phe, Trp and Tyr): L-amino acid+H2O+O2→2-oxo acid+NH3+H2O2. Equal molar of H2O2 and the corresponding alpha-ketoacid are produced when IL4I1 and substrate are added. In this assay, the hydrogen peroxide generated by IL4I1 is then detected through a coupled reaction with Amplex® Red (10-acetyl-3,7-dihydroxyphenoxazine) and horseradish peroxidase (HRP) to produce resorufin product that could be detected in the form of fluorescence signals. The assessment of the inhibitory effect of small molecules (EC50) on IL4I1 is measured by the effectiveness of the compounds to inhibit the production of H2O2.
# Using this assay, the potency (EC50) of each compound was determined from a ten-point (1:3 serial dilution) titration curve using the following outlined procedure. To each well of a black flat-bottom Greiner (Cat #781076) 384 well-plate, 25 nL of compound (0.1% DMSO in final assay volume of 25 μL) was dispensed, followed by the addition of 12.5 μL of 1× assay buffer (50 mM Hepes 7.0 and 0.005% Tween20 (Sigma, Cat #P8341; low peroxide grade)) containing 2 nM of recombinant IL4I1 (R&D Systems, Cat #5684-AO-020). Plates were placed in an ambient temperature humidified chamber for a four-hour pre-incubation with compound. Subsequently, each reaction was initiated by the addition of 12.5 μL 1× assay buffer containing 2 mM of each aromatic amino acids (Phe/Tyr/Trp), 0.1 mM Amplex Red and 2 U/mL of HRP. The final reaction in each well of 25 μL consisted of 1 nM of IL4I1, 1 mM of each residues (Phe, Tyr and Trp), 0.05 mM Amplex Red and 1 U/mL of HRP. It should be noted that the concentrations of Amplex Red and HRP used here were in excess such that the conversion of H2O2 to resorufin product occurred instantaneously and was non-rate limiting. Reactions were allowed to proceed for 120 minutes followed by fluorescence readout on a Spectramax with the following set parameters: 544 nm excitation/590 nm emission, 570 nm cutoff (EnVision is an alternative reader). Dose-response curves were generated by plotting percent effect (% product conversion; Y-axis) vs. Log10 compound concentrations (X-axis). EC50 values were calculated using a non-linear regression, four-parameters sigmoidal dose-response model and are shown in Potency Table 1.
# Chain of recombinant IL4I1 (Q96RQ9 22-567): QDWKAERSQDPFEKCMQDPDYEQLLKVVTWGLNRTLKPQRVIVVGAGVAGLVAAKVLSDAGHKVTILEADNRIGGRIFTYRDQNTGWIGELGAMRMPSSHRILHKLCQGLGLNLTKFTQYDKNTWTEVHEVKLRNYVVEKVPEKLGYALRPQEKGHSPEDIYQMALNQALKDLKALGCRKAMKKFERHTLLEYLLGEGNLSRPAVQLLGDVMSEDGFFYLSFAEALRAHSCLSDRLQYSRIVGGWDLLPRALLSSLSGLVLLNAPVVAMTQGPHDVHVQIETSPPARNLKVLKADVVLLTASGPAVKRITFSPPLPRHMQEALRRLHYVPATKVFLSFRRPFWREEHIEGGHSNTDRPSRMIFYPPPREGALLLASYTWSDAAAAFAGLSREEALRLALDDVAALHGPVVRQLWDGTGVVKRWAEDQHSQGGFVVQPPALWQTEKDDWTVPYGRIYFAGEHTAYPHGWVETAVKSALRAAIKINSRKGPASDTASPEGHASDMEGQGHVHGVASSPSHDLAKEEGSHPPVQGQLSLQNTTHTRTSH
structure (smiles),measurement,value
"O=C1C(=O)N(C2(CF)CC2)CCN1Cc1nnc(-c2ccccc2F)s1 [Example 194, 1-(1-(fluoromethyl)cyclopropyl)-4-((5-(2-fluorophenyl)-1,3,4-thiadiazol-2-yl)methyl)piperazine-2,3-dione]",EC50,41 nM
"O=c1c(=O)n(C23CC(C2)C3)ccn1Cc1cc(-c2cccc(F)c2)on1 [Example 417, 1-(bicyclo[1.1.1]pentan-1-yl)-4-((5-(3-fluorophenyl)isoxazol-3-yl)methyl)-1,4-dihydropyrazine-2,3-dione]",EC50,2 nM
"O=c1c(=O)n(C23CC(C2)C3)ccn1Cc1ccc(-n2nccn2)cn1 [Example 360, 1-((5-(2H-1,2,3-triazol-2-yl)pyridin-2-yl)methyl)-4-(bicyclo[1.1.1]pentan-1-yl)-1,4-dihydropyrazine-2,3-dione]",EC50,16 nM
"O=C1C(=O)N(C2CCCC2)CCN1CCc1nnc(-c2ccccc2)s1 [Example 350, 1-cyclopentyl-4-(2-(5-phenyl-1,3,4-thiadiazol-2-yl)ethyl)piperazine-2,3-dione]",EC50,5 nM
"O=c1c(=O)n(C2(CF)CC2)ccn1Cc1cc(-c2cccnc2)on1 [Example 253, 1-(1-(fluoromethyl)cyclopropyl)-4-((5-(pyridin-3-yl)isoxazol-3-yl)methyl)-1,4-dihydropyrazine-2,3-dione]",EC50,45 nM
"O=C1C(=O)N([C@H]2C[C@H]3C[C@H]3C2)CCN1Cc1ncc(-c2ccccc2)cn1 [Example 278, 1-((cis)-bicyclo[3.1.0]hexan-3-yl)-4-((5-phenylpyrimidin-2-yl)methyl)piperazine-2,3-dione]",EC50,16 nM
"O=c1c(=O)n(C23CC(F)(C2)C3)ccn1Cc1ccc(-c2ccccn2)nn1 [Example 214, 1-(3-fluorobicyclo[1.1.1]pentan-1-yl)-4-((6-(pyridin-2-yl)pyridazin-3-yl)methyl)-1,4-dihydropyrazine-2,3-dione]",EC50,56 nM
"O=C1C(=O)N(C23CC(C2)C3)CCN1Cc1ccc(-c2cccc(F)c2)nn1 [Example 65, 1-(bicyclo[1.1.1]pentan-1-yl)-4-((6-(3-fluorophenyl)pyridazin-3-yl)methyl)piperazine-2,3-dione]",EC50,4 nM
"O=C1C(=O)N(C2CCC2)CCN1Cc1cn(-c2ccccc2)cn1 [Example 174, 1-cyclobutyl-4-((1-phenyl-1H-imidazol-4-yl)methyl)piperazine-2,3-dione]",EC50,39 nM
"O=c1c(=O)n([C@H]2C[C@H]3C[C@H]3C2)ccn1Cc1cc(-c2cccc(F)c2)on1 [Example 67, 1-((cis)-bicyclo[3.1.0]hexan-3-yl)-4-((5-(3-fluorophenyl)isoxazol-3-yl)methyl)-1,4-dihydropyrazine-2,3-dione]",EC50,1 nM
"N#Cc1ccc(-c2cc(CN3CCN(C45CC(C4)C5)C(=O)C3=O)no2)cc1 [Example 423, 4-(3-((4-(bicyclo[1.1.1]pentan-1-yl)-2,3-dioxopiperazin-1-yl)methyl)isoxazol-5-yl)benzonitrile]",EC50,19 nM
"O=C1C(=O)N([C@H]2C[C@H]3C[C@H]3C2)CCN1Cc1nnc(-c2ccccc2)s1 [Example 283, 1-((cis)-bicyclo[3.1.0]hexan-3-yl)-4-((5-phenyl-1,3,4-thiadiazol-2-yl)methyl)piperazine-2,3-dione]",EC50,7 nM
"O=C1C(=O)N(C23CC(C2)C3)CCN1Cc1nnc(-c2ccccc2F)s1 [Example 31, 1-(bicyclo[1.1.1]pentan-1-yl)-4-((5-(2-fluorophenyl)-1,3,4-thiadiazol-2-yl)methyl)piperazine-2,3-dione]",EC50,6 nM
"O=c1c(=O)n([C@H]2C[C@H]3C[C@H]3C2)ccn1Cc1ccc(-c2ccccc2)nn1 [Example 58, 1-((cis)-bicyclo[3.1.0]hexan-3-yl)-4-((6-phenylpyridazin-3-yl)methyl)-1,4-dihydropyrazine-2,3-dione]",EC50,4 nM
"O=C1C(=O)N(C2CCC2)CCN1Cc1cnc(-n2nccn2)cn1 [Example 324, 1-((5-(2H-1,2,3-triazol-2-yl)pyrazin-2-yl)methyl)-4-cyclobutylpiperazine-2,3-dione]",EC50,53 nM
"O=c1c(=O)n(C2CCC2)ccn1Cc1nnc(-c2ccccc2)s1 [Example 396, 1-cyclobutyl-4-((5-phenyl-1,3,4-thiadiazol-2-yl)methyl)-1,4-dihydropyrazine-2,3-dione]",EC50,5 nM
"O=C1C(=O)N(C2CCCC2)CCN1Cc1cc(-c2cccc(F)c2)no1 [Example 153, 1-cyclopentyl-4-((3-(3-fluorophenyl)isoxazol-5-yl)methyl)piperazine-2,3-dione]",EC50,3 nM
"O=c1c(=O)n([C@H]2C[C@H]3C[C@H]3C2)ccn1Cc1nnc(-c2cccc(F)c2)s1 [Example 43, 1-((cis)-bicyclo[3.1.0]hexan-3-yl)-4-((5-(3-fluorophenyl)-1,3,4-thiadiazol-2-yl)methyl)-1,4-dihydropyrazine-2,3-dione]",EC50,3 nM
"O=C1C(=O)N(C2CCCC2)CCN1Cc1nnc(-n2nccn2)s1 [Example 323, 1-((5-(2H-1,2,3-triazol-2-yl)-1,3,4-thiadiazol-2-yl)methyl)-4-cyclopentylpiperazine-2,3-dione]",EC50,157 nM
"CC1(N2CCN(Cc3cc(-c4ccccc4)on3)C(=O)C2=O)CCC1 [Example 167, 1-(1-methylcyclobutyl)-4-((5-phenylisoxazol-3-yl)methyl)piperazine-2,3-dione]",EC50,9 nM
"O=C1C(=O)N(C2CCC2)CCN1Cc1ccc(-n2nccn2)cn1 [Example 136, 1-((5-(2H-1,2,3-triazol-2-yl)pyridin-2-yl)methyl)-4-cyclobutylpiperazine-2,3-dione]",EC50,20 nM
"CC1(n2ccn(Cc3cc(-c4cccc(F)c4)on3)c(=O)c2=O)CCC1 [Example 421, 1-((5-(3-fluorophenyl)isoxazol-3-yl)methyl)-4-(1-methylcyclobutyl)-1,4-dihydropyrazine-2,3-dione]",EC50,5 nM
"O=C1C(=O)N(C2CCCC2)CCN1Cc1ccc(-c2ccccn2)nn1 [Example 368, 1-cyclopentyl-4-((6-(pyridin-2-yl)pyridazin-3-yl)methyl)piperazine-2,3-dione]",EC50,28 nM
"O=C1C(=O)N(C2CCOC2)CCN1Cc1ncc(-c2ccccc2)cn1 (stereo not drawn) [Example 279, 1-((5-phenylpyrimidin-2-yl)methyl)-4-(tetrahydrofuran-3-yl)piperazine-2,3-dione]",EC50,68 nM
"O=C1C(=O)N(C23CC(F)(C2)C3)CCN1Cc1ccc(-n2cccn2)cn1 [Example 250, 1-((5-(1H-pyrazol-1-yl)pyridin-2-yl)methyl)-4-(3-fluorobicyclo[1.1.1]pentan-1-yl)piperazine-2,3-dione]",EC50,240 nM
"CC1(N2CCN(Cc3nnc(-c4ccccc4)s3)C(=O)C2=O)COC1 [Example 302, 1-(3-methyloxetan-3-yl)-4-((5-phenyl-1,3,4-thiadiazol-2-yl)methyl)piperazine-2,3-dione]",EC50,69 nM
"O=c1c(=O)n(C2CCC2)ccn1Cc1ccc(-c2ccccc2F)nc1 [Example 72, 1-cyclobutyl-4-((6-(2-fluorophenyl)pyridin-3-yl)methyl)-1,4-dihydropyrazine-2,3-dione]",EC50,2 nM
"O=C1C(=O)N(C23CC(C2)C3)CCN1Cc1cnc(-n2nccn2)cn1 [Example 325, 1-((5-(2H-1,2,3-triazol-2-yl)pyrazin-2-yl)methyl)-4-(bicyclo[1.1.1]pentan-1-yl)piperazine-2,3-dione]",EC50,33 nM
"O=C1C(=O)N(C2CCC2)CCN1Cc1ccc(-n2ccnn2)nc1 [Example 109, 1-((6-(1H-1,2,3-triazol-1-yl)pyridin-3-yl)methyl)-4-cyclobutylpiperazine-2,3-dione]",EC50,24 nM
"CC1(n2ccn(Cc3ccc(-n4ccnn4)cn3)c(=O)c2=O)CC1 [Example 385, 1-((5-(1H-1,2,3-triazol-1-yl)pyridin-2-yl)methyl)-4-(1-methylcyclopropyl)-1,4-dihydropyrazine-2,3-dione]",EC50,42 nM
"CC1(n2ccn(Cc3ccc(-n4ccnn4)nc3)c(=O)c2=O)CC1 [Example 414, 1-((6-(1H-1,2,3-triazol-1-yl)pyridin-3-yl)methyl)-4-(1-methylcyclopropyl)-1,4-dihydropyrazine-2,3-dione]",EC50,15 nM
"O=C1C(=O)N(C2CCCC2)CCN1Cc1nnc(N2CCCC2)s1 [Example 310, 1-cyclopentyl-4-((5-(pyrrolidin-1-yl)-1,3,4-thiadiazol-2-yl)methyl)piperazine-2,3-dione]",EC50,41 nM
"C[C@@H](c1nnc(-c2ccccc2)s1)N1CCN(C2CCCC2)C(=O)C1=O [Example 349, (S)-1-cyclopentyl-4-(1-(5-phenyl-1,3,4-thiadiazol-2-yl)ethyl)piperazine-2,3-dione]",EC50,25 nM

# From US20240246937A1 (MERCK SHARP & DOHME LLC, priority 2021, published 2024)
